Values quoted from earlier work as cited in US20140208977A1, “POLYDISPERSE COMPOSITIONS AND METHODS FOR ELIMINATING VOLATILE ORGANIC COMPOUNDS” (priority 2013, published 2014).

Settings: 77° F.

SMILES | Vapor Pressure [mmHg]
C[Si]1(C)O[Si](C)(C)O[Si](C)(C)O[Si](C)(C)O[Si](C)(C)O1 [Decamethylcyclopentasiloxane] | 0.4
C[Si](C)(C)O[Si](C)(C)O[Si](C)(C)O[Si](C)(C)C [Decamethyltetrasiloxane] | 0.55
C[Si]1(C)O[Si](C)(C)O[Si](C)(C)O[Si](C)(C)O[Si](C)(C)O[Si](C)(C)O1 [Dodecamethylcyclohexasiloxane] | 0.02
C[Si](C)(C)O[Si](C)(C)O[Si](C)(C)O[Si](C)(C)O[Si](C)(C)C [Dodecamethylpentasiloxane] | 0.7
C[Si](C)(C)O[Si](C)(C)C [Hexamethyldisiloxane] | 31
C[Si]1(C)O[Si](C)(C)O[Si](C)(C)O[Si](C)(C)O1 [Octamethylcyclotetrasiloxane] | 1.3
C[Si](C)(C)O[Si](C)(C)O[Si](C)(C)C [Octamethyltrisiloxane] | 3.9

Settings: 25° C.

SMILES | Water Solubility [µg/mL]
C[Si]1(C)O[Si](C)(C)O[Si](C)(C)O1 [Hexamethylcyclotrisiloxane] | 1.56
C[Si](C)(C)O[Si](C)(C)O[Si](C)(C)C [Octamethyltrisiloxane] | 0.035
